Reference: PMC7279487, “Dual Target Ligands with 4-tert-Butylphenoxy Scaffold as Histamine H3 Receptor Antagonists and Monoamine Oxidase B Inhibitors” (International Journal of Molecular Sciences, 2020)

What was measured:
[1] = molecular target: T1, human MAO A (Homo sapiens, UniProt P21397); assay: hMAO A inhibition, fluorometric Amplex Red MAO assay; format: biochemical; settings: mean ± SEM; p-tyramine 200 μM
T1 construct: purchased Sigma Aldrich M7316
T1 sequence (P21397 1-527): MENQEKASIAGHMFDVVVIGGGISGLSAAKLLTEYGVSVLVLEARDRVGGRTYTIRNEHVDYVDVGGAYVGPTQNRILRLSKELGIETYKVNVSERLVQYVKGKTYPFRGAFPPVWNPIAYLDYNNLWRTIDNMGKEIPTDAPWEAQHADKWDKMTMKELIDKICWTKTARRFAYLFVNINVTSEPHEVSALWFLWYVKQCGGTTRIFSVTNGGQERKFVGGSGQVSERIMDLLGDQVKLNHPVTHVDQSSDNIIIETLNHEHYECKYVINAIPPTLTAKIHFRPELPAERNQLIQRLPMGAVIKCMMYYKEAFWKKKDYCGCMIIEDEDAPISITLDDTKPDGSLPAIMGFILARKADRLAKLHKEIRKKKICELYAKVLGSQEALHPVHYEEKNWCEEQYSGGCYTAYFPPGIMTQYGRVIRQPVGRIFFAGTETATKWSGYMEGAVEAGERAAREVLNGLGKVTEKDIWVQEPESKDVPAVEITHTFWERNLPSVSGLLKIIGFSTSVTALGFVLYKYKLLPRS
Protocol: Inhibitory potency of compounds on MAO isoenzymes were carried out by a fluorometric method with a commercial Amplex™ Red Monoamine Oxidase Assay Kit (ThermoFisher Scientific A12214, Waltham, MA, USA) as described previously. For all tests, recombinant human MAO B and MAO A (from Sigma AldrichM7441 and M7316, Darmstadt, Germany) were used. Inhibitors’ activity was measured in the presence of p-tyramine (200 μM).
[…] […] All calculations were made in Microsoft Excel and GraphPadPrism software. All experiments were performed in duplicate, and data are expressed as mean ± SEM of 2–5 independent experiments.

[2] = molecular target: T2, hMAO B (Homo sapiens, UniProt P27338); assay: hMAO B kinetic studies (Michaelis-Menten, Lineweaver-Burk); format: biochemical
T2 construct: purchased Sigma Aldrich M7441
T2 sequence (P27338 1-520): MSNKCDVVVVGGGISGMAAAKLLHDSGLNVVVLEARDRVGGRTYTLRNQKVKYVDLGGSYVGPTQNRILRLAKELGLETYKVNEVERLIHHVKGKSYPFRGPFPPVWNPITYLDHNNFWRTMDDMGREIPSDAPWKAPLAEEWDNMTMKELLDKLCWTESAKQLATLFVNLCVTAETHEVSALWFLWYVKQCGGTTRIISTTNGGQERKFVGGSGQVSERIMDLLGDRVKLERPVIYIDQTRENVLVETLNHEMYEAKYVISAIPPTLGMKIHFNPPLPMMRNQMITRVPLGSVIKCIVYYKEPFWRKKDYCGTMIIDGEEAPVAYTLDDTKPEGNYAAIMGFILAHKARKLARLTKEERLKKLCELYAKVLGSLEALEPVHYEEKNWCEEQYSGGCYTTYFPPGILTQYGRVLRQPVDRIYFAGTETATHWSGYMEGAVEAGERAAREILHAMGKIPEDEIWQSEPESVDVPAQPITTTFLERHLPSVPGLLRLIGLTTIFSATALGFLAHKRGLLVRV
Protocol: Results from the kinetic experiment were used for determination of Michaelis–Menten curves (Figure 4A,C). […] From Michaelis–Menten curves, Vmax and KM values were fitted (Table 2). For both compounds, Vmax values decreased curvilinearly and KM values increased curvilinearly with the increased inhibitor concentrations.
The mode of the inhibition was tested according to the standard procedure described in Reversibility Studies using different concentrations of the substrate. […] Substrate was used in six concentrations: […], 0.1 mM, 0.5 mM, 1 mM, 1.5 mM, and 2 mM. After the experiment, velocities were calculated and put on the graph (y-axis) against the concentration of the substrate (x-axis). From the Michaelis–Menten plot Vmax, KM, and α values were calculated for different concentrations of the inhibitor. Double-reciprocal plot (Lineweaver–Burk plot) were prepared to display the data.
The α values for different modes of reversible inhibition as well as their diagnostic signature on […]
The α value for compound 9 was calculated by GraphPad Prism software from the nonlinear regression curves using following equation for mixed- […]
v = Vmax*[S] / [S]*(1+ [I]/ αKi) + KM*(1+ [I]/Ki) (1) v – velocity of enzyme reaction. Vmax - maximum velocity (at infinite substrate concentration); Ki – dissociation constant for Enzyme-Inhibitor complex (in the enzymology literature other symbols can be used such as: Ki, Kii , KEI etc.); αKi – dissociation constant for Enzyme-Substrate-Inhibitor complex (in the literature also under the symbols: Ki’, Kis and KES); KM – Michaelis-Menten constant; [I]– concentration of the inhibitor; [S] – concentration of the substrate [Ref S1].
Table S1. Relation between inhibition modality, α value, and diagnostic signature on the double-reciprocal plots (i.e Lineweaver-Burk plot) [S2].
α Inhibition modality Diagnostic signature on […]
α = 1 (inhibitor binds to free enzyme lines converge at the x-axis and enzyme-substrate complex
(inhibitor can bind to free lines converge to the left of the α > 1 enzyme and enzyme-substrate y-axis and above the x-axis complex unequally), inhibitor’s affinity is higher for free enzyme
(inhibitor can bind to free
α < 1 enzyme and enzyme-substrate lines converge to the left of the complex unequally), inhibitor’s y-axis and below the x-axis affinity is higher for the enzyme- […]
α → ∞ (inhibitor and substrate compete lines converge at the y-axis for the same site of binding) […]
α → 0 and α > 0 (inhibitor binds only to the parallel lines

[3] = tested on: HEK-293 cells; assay: toxicity in HEK-293 cells (EZ4U); format: cell-based, human; settings: 48 h incubation; EZ4U
Protocol: The used reference cytostatic drug doxorubicin (DX) decreased cell viability <50% under the same conditions at very low concentrations of 0.2 and 0.05 µM. […] Oxidative damage was induced by very high toxic levels of hydrogen peroxide (H2O2; 300 µM), the popular cell model for PD research, in neuroblastoma SH-SY5Y cell line. […] Salsolinol (SAL) was used at a concentration of 50 µM as the reference compound with the proven neuroprotection activity.
The HEK-293 cells were seeded at a concentration of 1.5 × 10^4 cells/well in 200 μL culture medium and incubated for 24 h at 37 °C and 5% CO2. […] Then, 25 μL EZ4U labelling mixture (Biomedica, Vienna, Austria) was added and the cells were incubated for 2 h. The spectrophotometric absorbance of the samples was measured using a microplate reader (EnSpire, PerkinElmer, Waltham, MA, USA) at 492 nm. All measurements were performed in triplicate, and results are shown as mean ± SD.

[4] = molecular target: T2, hMAO B; assay: hMAO B reversibility studies; format: biochemical; settings: inhibitor at IC80; without preincubation; compared with safinamide and rasagiline
Protocol: Reversibility of MAO B inhibitors was tested as described previously with slight modification. Two experiments were performed simultaneously. In the first experiment, inhibitors (in concentrations corresponding to their IC80 values) were incubated with the enzyme and p-tyramine (10 μM) for 22 min (measuring fluorescence every two minutes).

**Q.** With `CC(C)(C)c1ccc(OCCCN2CCCCC2)cc1` [DL76, 1-(3-(4-tert-butylphenoxy)propyl)piperidine] as the molecule, how does the IC50 [1] read?
**A.** Its IC50 is > 10 µM.

**Q.** What about the “constant α” value ([2]; calculated by GraphPad Prism from nonlinear regression, mixed-model inhibition) of the same molecule?
**A.** The value was 4.6.

**Q.** What about the “mode of hMAO B inhibition” value ([2]; from Vmax and KM behaviour and Lineweaver-Burk plot) of the same molecule?
**A.** The value was “mixed mode inhibition”.

**Q.** And the “Vmax (RFU/min)” value ([2]; inhibitor concentration 7 nM)?
**A.** Its value is 1628 RFU/min.

**Q.** What about the “Vmax (RFU/min)” value ([2]; inhibitor concentration 48 nM) of the same molecule?
**A.** Its value is 1165 RFU/min.

**Q.** And the “Vmax (RFU/min)” value ([2]; inhibitor concentration 164 nM)?
**A.** The value was 726.3 RFU/min.

**Q.** What about the HEK-293 cell viability [3] of the same molecule?
**A.** Its HEK-293 cell viability is “observed only at the highest doses of 125 µM and 250 µM”.

**Q.** What about the “type of hMAO B inhibition (reversible or irreversible)” value [4] of the same molecule?
**A.** The value was “reversible”.
